Source: patent US20160081985A1, “CENICRIVIROC COMPOSITIONS AND METHODS OF MAKING AND USING THE SAME” (Tobira Therapeutics, Inc., priority 2013, published 2016)

How the values were obtained:
[1] = Disintegration behavior of tablets in approximately 250 mL water; type: physicochemical; settings: single tablet in approximately 250 mL water
[2] = Dissolution time of acid solubilizers in purified water (FBRM); type: physicochemical; settings: 200 mg acid in 90 mL purified water, 250 rpm
Procedure: The results described in Table 1 were performed by adding 200 mg of the acid to 90 mL purified water using a Mettler Toledo mixing chamber held at the specified temperature with an upward pumping four blade impeller at 250 rpm. The disappearance of particles undergoing dissolution was monitored by focused-beam reflectance measurement (FBRM). Data was analyzed by reviewing individual 2 second measurement trends as well as trends averaged over 10 and 30 seconds.

[3] = Steady-state vs single dose exposure in various other clinical trials; type: in vivo, human; settings: different formulations
[4] = humans; efavirenz as inducer of CYP3A4; cited from earlier work

| Dissolution time ([2]; 25° C.) | Dissolution time ([2]; 37° C.) | Compound | also measured |
| --- | --- | --- | --- |
|  |  | Nc1ccn([C@@H]2CS[C@H](CO)O2)c(=O)n1 [lamivudine] | Disintegration Observations (mode) [1]: Rapid; Disintegration time [1]: tion <30 seconds |
| 312 s | 152 s | O=C(O)/C=C/C(=O)O [Fumaric, Fumaric Acid] |  |
| 4 s | <2 s | O=C(O)/C=C\C(=O)O [Maleic, Maleic Acid] |  |
|  |  | CCCCOCCOc1ccc(-c2ccc3c(c2)/C=C(/C(=O)Nc2ccc([S@@+]([O-])Cc4cncn4CCC)cc2)CCCN3CC(C)C)cc1 [cenicriviroc, (S,E)-8-(4-(2-Butoxyethoxy)phenyl)-1-(2-methylpropyl)-N-(4-(((1-propyl-1H-imidazol-5-yl)methyl)sulfinyl)phenyl)-1,2,3,4-tetrahydrobenzo[b]azocine-5-carboxamide] | Steady-state exposure level (AUC, day 10) relative to single dose exposure [3]: approximately 1.5 fold; Decrease of cenicriviroc plasma concentration by efavirenz [4]: approximately 2 fold |
